Reference: BindingDB's records for doi:10.1002/cbic.200800704 (Antibiotics Laboratory, 2009)

biological target: Carbonic anhydrase 2 (Homo sapiens, UniProt P00918); experiment: Inhibition Assay; conditions: pH 8.4
Protocol: Inhibitory activity of the compounds for CAII was measured and IC50 values were calculated from independent triplicated experiments. Kd values were obtained by ITC analysis.

Structure (SMILES) | IC50 [nM] | Kd [nM]
NS(=O)(=O)c1ccc(F)cc1 [4-Fuloro sulfonamide, C] | 203 | 435
NS(=O)(=O)c1ccc(N2CCN(Cc3ccncc3)CC2)cc1 [Piperazine moiety, 3] | 48 | 29
NS(=O)(=O)c1ccc(N2CCN(C(=O)c3ccncc3)CC2)cc1 [Piperazine moiety, 6] | 72 | 100
NS(=O)(=O)c1ccc(N2CCN(CCO)CC2)cc1 [Piperazine moiety, 5] | 137 | 208
NS(=O)(=O)c1ccc(N2CCNCC2)cc1 [Piperazine moiety, 4] | 299 | 426
